Laboratory results published in PMC9138991, “Effect of Trimethine Cyanine Dye- and Folate-Conjugation on the In Vitro Biological Activity of Proapoptotic Peptides” (Biomolecules, 2022).
Where a SMILES comes first, the peptide text is derived from it. Side-chain parts run from the residue outwards. [ ]: non-standard residue; d: D form. The star is where a group is joined. X1 = CN1/C(=C\C=C\C2=[N+](CCCCCC(=O)*)c3ccccc3C2(C)C)C(C)(C)c2ccccc21; Pteroyl = Nc1nc2ncc(CNc3ccc(C(=O)*)cc3)nc2c(=O)[nH]1; Cha = N[C@@H](CC1CCCCC1)C(=O)O; dCha = N[C@H](CC1CCCCC1)C(=O)O

Assays:
Type in all cases: cell-based, human
[1] = test system: KB, MCF7, SK-OV-3, and HEK293 cells; experiment: Cell viability assay (CellTiter-Blue), statements over all tested cell lines; details: for Selectivity of cytotoxicity between cell lines, in words: folate receptor α-high KB and SK-OV-3 versus MCF7 and HEK293
Method: (§1) SK-OV-3, MCF7, and HEK293 cells were seeded at a density of 2 × 10^4 cells per well in a Nunc™ MicroWell™ 96-well plate and grown at 37 °C in a 5% CO2 atmosphere in DMEM supplemented with 10% (v/v) FBS for 24 h. KB cells were seeded at a density of 7 × 10^3 cells per well in a 96-well plate and grown at 37 °C in a 5% CO2 atmosphere in folic acid-depleted RPMI-1640 medium supplemented with 10% (v/v) FBS for 24 h. Stock solutions of compounds 2–6 and 11–13 were obtained by dissolving the compounds in sterile deionized water. Compounds 1, and 7–10 were dissolved in pure DMSO. The stock solutions were diluted into the proper medium (according to the cell line tested) supplemented with 10% FBS to the appropriate concentration, and cells in each well were incubated with 100 µL of the solution. The solutions in each well were then adjusted to a concentration of 1% (v/v) DMSO. After 24 h at 37 °C, 20 µL of CellTiter-Blue™ was added to each well. The plate was incubated for another 4 h at 37 °C before analysis on a Perkin Elmer Victor X plate reader (excitation 531 nm; emission 595 nm). Each data point was calculated from a minimum of nine values resulting from three biological replicates (i.e., cells split from three different passages); each biological replicate is calculated from three technical replicates (i.e., cells split from the same passage). Value from media-only with CellTiter-Blue™ was set at 0% viability. This value was then subtracted from the values from cell-only (i.e., non-treated) wells with CellTiter-Blue™ in each biological replicate and set as 100% viability. For treatments of Cy3-containing compounds, blanks were generated with cell-free wells containing the compounds incubated for 24 h before addition of CellTiter-Blue™. The fluorescent reading for these wells was deducted from the treatment readings. Dose-response fitting curves were generated using Origin, version 2019b, OriginLab Corporation, Northampton, MA, USA (Figures S21–S24, Supplementary Materials).
(§2) Comparison of cytotoxicity fitting curves was achieved by applying the extra sum-of-squares F test, performed using GraphPad Prism version 9 for Windows, GraphPad Software, La Jolla, California, USA (https://www.graphpad.com/). […] Statistical analysis on the flow cytometry data was achieved by applying the unpaired two-tailed t-test test, performed using GraphPad Prism version 9 for Windows, GraphPad Software, La Jolla California USA, USA (https://www.graphpad.com/).
Cytotoxicity of 1–13 was evaluated using the CellTiter-Blue assay on KB, MCF7, SK-OV-3, and HEK293 cells. KB cells are derived from human cervical cancer, while SK-OV-3 cells are derived from human ovarian cancer. […] This feature is of particular relevance in anticancer applications, as it can be exploited for selective targeting and delivery. MCF7 is a cell line derived from human breast cancer with low levels of folate receptor α [27]. Therefore, it can serve as the negative control for folate receptor α mediated tumor-targeted drug delivery systems. HEK293 is a non-cancer cell line and was chosen to evaluate the specificity of the tested compounds toward cancer cells.

MCF7 cells = experiment: Cell viability assay (CellTiter-Blue), MCF7 cells; details: MCF7 cells, 2 × 10^4 cells per well, DMEM + 10% FBS, 1% DMSO, 24 h at 37 °C, then CellTiter-Blue 4 h; three biological replicates fitted in Origin, standard error in brackets
Method: (§3) KB and MCF7 cells were kindly gifted by Prof. Arwyn T. Jones (Cardiff University), HEK293 cells were purchased from Public Health England, and SK-OV-3 cells were purchased from National Collection of Authenticated Cell Cultures (https://cell-bank.org.cn/). Cells were routinely tested for mycoplasma infection. KB and SK-OV-3 cells were maintained in T75 flasks at 37 °C in a 5% CO2 atmosphere in folic acid-depleted Roswell Park Memorial Institute (RPMI)-1640 medium supplemented with 10% (v/v) fetal bovine serum (FBS). MCF7 and HEK293 cells were maintained in T75 flasks at 37 °C in a 5% CO2 atmosphere in Dulbecco’s Modified Eagle’s medium (DMEM) supplemented with 10% (v/v) FBS. Cells were maintained at a sub-confluent monolayer and split at 80–85% confluency. For splitting, cells were washed with PBS, trypsinized in 1 mL of trypsin, and 200 µL of the 1000 µL trypsin cell suspension was re-suspended in 12 mL fresh DMEM containing 10% (v/v) FBS in a new T75 flask. KB and SK-OV-3 cells were used for biological experiments after being maintained for at least 10 days in folic acid-depleted RPMI-1640 medium.
as §1, §2
(§4) Cytotoxicity of 1–13 was evaluated using the CellTiter-Blue assay on KB, MCF7, SK-OV-3, and HEK293 cells. KB cells are derived from human cervical cancer, while SK-OV-3 cells are derived from human ovarian cancer. […] This feature is of particular relevance in anticancer applications, as it can be exploited for selective targeting and delivery. […]

SK-OV-3 cells = experiment: Cell viability assay (CellTiter-Blue), SK-OV-3 cells; details: 2 × 10^4 cells per well, medium + 10% FBS, 1% DMSO, 24 h at 37 °C, then CellTiter-Blue 4 h, three biological replicates fitted in Origin, standard error in brackets
Method: as §3, §1, §2, §4

KB cells = experiment: Cell viability assay (CellTiter-Blue), KB cells; details: 7 × 10^3 cells per well, folic acid-depleted RPMI-1640 + 10% FBS, 1% DMSO, 24 h at 37 °C, then CellTiter-Blue 4 h, three biological replicates fitted in Origin, standard error in brackets
Method: as §3, §1, §2, §4

HEK293 cells = experiment: Cell viability assay (CellTiter-Blue), HEK293 cells; details: 2 × 10^4 cells per well, DMEM + 10% FBS, 1% DMSO, 24 h at 37 °C, then CellTiter-Blue 4 h, three biological replicates fitted in Origin, standard error in brackets
Method: as §3, §1, §2, §4

[2] = test system: mitochondria of MCF7 cells; experiment: Confocal microscopy, colocalisation with MitoTracker Green FM, MCF7 cells; details: 10 µM conjugate, 10 min at 37 °C; for Pearson's correlation coefficient of MitoTracker Green and Cy3 fluorescence: imaged at 20X; for Pearson's correlation coefficient of MitoTracker Green FM and Cy3 fluorescence: imaged at 63X
Method: (§5) SK-OV-3 and MCF7 were seeded at a density of 1 × 10^6 cells per well in glass-bottom culture dishes and grown at 37 °C in a 5% CO2 atmosphere in medium supplemented with 10% (v/v) FBS for 24 h. Cells were washed once with the RPMI-1640 medium supplemented with 10% (v/v) FBS before staining. Compounds 1, 5–10 were diluted into the RPMI-1640 medium supplemented with 10% (v/v) FBS to 10 μM and then added to the culture dishes, respectively. After 10-min incubation at 37 °C, cells were washed with RPMI-1640 medium supplemented with 10% (v/v) FBS. Cells were then treated with 50 nM MitoTracker Green FM and 10 μg/mL Hoechst33258 pre-formulated with RPMI-1640 medium supplemented with 10% (v/v) FBS and then incubated for another 10 min at 37 °C before analysis on ZEISS LSM 900 with Airyscan 2. The results were analyzed using Image J software (Figure 3 and Figures S4–S7 in Supplementary Materials).
(§6) Figure 3 Confocal microscopy images of SK-OV-3 and MCF7 cells treated with Cy3-containing conjugates. Cells were treated with 10 µM of the indicated conjugate for 10 min at 37 °C, washed, stained with 50 nM MitoTracker Green FM and 10 μg/mL Hoechst33258 for 10 min at 37 °C, washed, and imaged at 63X. Pearson’s correlation coefficients of MitoTracker Green FM and Cy3 fluorescence for compounds 1, 5, 6, 7, 8, 9, and 10 in SK-OV-3 and MCF cells are 0.75/0.64, 0.73/0.81, 0.91/0.61, 0.78/0.63, 0.85/0.69, 0.43/0.82, and 0.78/0.60, respectively. Excitation wavelengths for Hoechst33258, MitoTracker Green FM and Cy3 were set as 405, 488, and 561 nm, respectively. Scale bars denote 25 μm. Additional images, including the results of Hoechst33258 staining, are shown in Figure S4 (SK-OV-3 at 20X), Figure S5 (SK-OV-3 at 63X), Figure S6 (MCF7 at 20X) and Figure S7 (MCF7 at 63X), Supplementary Materials.

[3] = test system: mitochondria of SK-OV-3 cells; experiment: Confocal microscopy, colocalisation with MitoTracker Green FM, SK-OV-3 cells; details: 10 µM conjugate, 10 min at 37 °C; for Pearson's correlation coefficient of MitoTracker Green and Cy3 fluorescence: imaged at 20X; for Pearson's correlation coefficient of MitoTracker Green FM and Cy3 fluorescence: imaged at 63X
Method: as §5, §6

Row | Structure (SMILES) | Selectivity of cytotoxicity between cell lines, in words [1] | EC50 (MCF7 cells) [µM] | EC50 (SK-OV-3 cells) [µM] | EC50 (KB cells) [µM] | EC50 (HEK293 cells) [µM] | EC50 ([1]; KB, SK-OV-3, MCF7 and HEK293 cells, CellTiter-Blue, 24 h) [µM] | Potency (cytotoxicity) in the tested cell lines, in words ([1]; KB, SK-OV-3, MCF7 and HEK293 cells, CellTiter-Blue, extra sum-of-squares F test) | Pearson's correlation coefficient of MitoTracker Green and Cy3 fluorescence [2] | Pearson's correlation coefficient of MitoTracker Green FM and Cy3 fluorescence [2] | Pearson's correlation coefficient of MitoTracker Green and Cy3 fluorescence [3] | Pearson's correlation coefficient of MitoTracker Green FM and Cy3 fluorescence [3]
1 | CC(=O)N[C@@H](CCCCNC(=O)[C@H](CCC(=O)O)NC(=O)c1ccc(NCc2cnc3nc(N)nc(O)c3n2)cc1)C(=O)N[C@@H](CCCCN)C(=O)N[C@@H](CC(C)C)C(=O)N[C@@H](C)C(=O)N[C@@H](CCCCN)C(=O)N[C@@H](CC(C)C)C(=O)N[C@@H](C)C(=O)N[C@@H](CCCCN)C(=O)N[C@@H](CCCCN)C(=O)N[C@@H](CC(C)C)C(=O)N[C@@H](C)C(=O)N[C@@H](CCCCN)C(=O)N[C@@H](CC(C)C)C(=O)N[C@@H](C)C(=O)N[C@@H](CCCCN)C(N)=O [Compound 11] | enhanced toxicity in KB but not in SK-OV-3 cells when compared to MCF7 and HEK293 cells | > 400 | > 400 | 242 | > 400 |  |  |  |  |  | 
2 | CC(C)C[C@@H](NC(=O)[C@H](N)CCCCN)C(=O)N[C@H](C)C(=O)N[C@H](CCCCN)C(=O)N[C@H](CC(C)C)C(=O)N[C@H](C)C(=O)N[C@H](CCCCN)C(=O)N[C@H](CCCCN)C(=O)N[C@H](CC(C)C)C(=O)N[C@H](C)C(=O)N[C@H](CCCCN)C(=O)N[C@H](CC(C)C)C(=O)N[C@H](C)C(=O)N[C@H](CCCCN)C(N)=O [Compound 3, reference compound] |  | > 400 | > 400 | 331 | > 400 | > 300 | least potent amongst the tested compounds |  |  |  | 
3 | CC(=O)N[C@@H](CCCCNC(=O)[C@H](CCC(=O)O)NC(=O)c1ccc(NCc2cnc3nc(N)nc(O)c3n2)cc1)C(=O)N[C@H](CCCCN)C(=O)N[C@H](CC(C)C)C(=O)N[C@H](C)C(=O)N[C@H](CCCCN)C(=O)N[C@H](CC(C)C)C(=O)N[C@H](C)C(=O)N[C@H](CCCCN)C(=O)N[C@H](CCCCN)C(=O)N[C@H](CC(C)C)C(=O)N[C@H](C)C(=O)N[C@H](CCCCN)C(=O)N[C@H](CC(C)C)C(=O)N[C@H](C)C(=O)N[C@H](CCCCN)C(N)=O [Compound 12] | enhanced toxicity in KB but not in SK-OV-3 cells when compared to MCF7 and HEK293 cells | > 400 | 388 | 151 | > 400 |  |  |  |  |  | 
4 | CC(C)C[C@@H](NC(=O)[C@@H](CCCCN)NC(=O)[C@H](CCCCNC(=O)[C@H](CCC(=O)O)NC(=O)c1ccc(NCc2cnc3nc(N)nc(O)c3n2)cc1)NC(=O)CCCCC[N+]1=C(/C=C/C=C2\N(C)c3ccccc3C2(C)C)C(C)(C)c2ccccc21)C(=O)N[C@H](C)C(=O)N[C@H](CCCCN)C(=O)N[C@H](CC(C)C)C(=O)N[C@H](C)C(=O)N[C@H](CCCCN)C(=O)N[C@H](CCCCN)C(=O)N[C@H](CC(C)C)C(=O)N[C@H](C)C(=O)N[C@H](CCCCN)C(=O)N[C@H](CC(C)C)C(=O)N[C@H](C)C(=O)N[C@H](CCCCN)C(N)=O [Compound 9] |  | 13.2 | 8 | 22.4 | 6.9 |  |  | 0.61 | 0.82 | 0.52 | 0.43
5 | C[C@@H](NC(=O)[C@H](CC1CCCCC1)NC(=O)[C@@H](CCCCN)NC(=O)[C@@H](C)NC(=O)[C@@H](CC1CCCCC1)NC(=O)[C@@H](CCCCN)NC(=O)[C@H](CCCCNC(=O)[C@H](CCC(=O)O)NC(=O)c1ccc(NCc2cnc3nc(N)nc(O)c3n2)cc1)NC(=O)CCCCC[N+]1=C(/C=C/C=C2\N(C)c3ccccc3C2(C)C)C(C)(C)c2ccccc21)C(=O)N[C@H](CCCCN)C(=O)N[C@H](CCCCN)C(=O)N[C@@H](CC1CCCCC1)C(=O)N[C@H](C)C(=O)N[C@H](CCCCN)C(=O)N[C@H](CC1CCCCC1)C(=O)N[C@H](C)C(=O)N[C@H](CCCCN)C(N)=O [Compound 10] (X1-K([Glu-Pteroyl])[dK][dCha][dA][dK][Cha][dA][dK][dK][Cha][dA][dK][dCha][dA][dK]-NH2) |  | 6.9 | 6 | 3.4 | 6.8 |  |  | 0.68 | 0.60 | 0.79 | 0.78
